Results on 5 compounds are retold here after patent publication US20090048260A1, “Use of pyrrolopyrazine derivatives for the production of medicaments for the treatment of mucoviscidosis and diseases related to protein addressing errors in cells” (priority 2004, published 2009).

Values joined by “and” are separate entries in the source; they are usually repeats but may differ in a detail not shown here. Equal values may be shown once.

As a reminder, the EC50 is the concentration at which the effect is half-maximal.

Data set [1] concerns the target T1, delF508-CFTR (Homo sapiens, UniProt P13569, DEL508-508).
T1 construct: endogenous in cells; host or cells: CF15 (homozygous delF508)
Put plainly: iodide efflux, targeting (retargeting) of delF508-CFTR in CF15 cells. The format is cell-based. The following applies: for effect of known CFTR inhibitors on delF508 transport after treatment with aloisine A: CF15 cells treated with aloisine A. The method, then: (§1) CF15 cells: CF15 cells are human epithelial cells of nasal origin which express the Δ508-CFTR gene.
Next, the quantity of radiotracer which leaves the cell is counted after the addition of various pharmacological agents.
The cells are cultured on 24-well plates in a suitable medium. […] The iodide equilibrates on either side of the cell membrane. A robot (MultiPROBE, Packard) carries out the following steps: the loading medium is rinsed with efflux medium in order to remove the extracellular radioactivity. The supernatant is collected every minute in hemolysis tubes and the medium is replaced with an equivalent volume (500 μl). The samples collected for the first 3 minutes are not supplemented with drug, they make it possible to obtain a stable baseline, characterizing the passive outflow of the I ions. The next 7 samples are obtained in the presence of the molecule to be tested. At the end of the experiment, the cells are lyzed by adding 500 μl of NaOH (0.1 N)/0.1% SDS (30 min), thus, the radioactivity which remained inside the cell may be determined. The radioactivity present in the hemolysis tubes is counted as counts per minute (cpm) using a gamma counter (Cobra II, Packard). The results in cpm are expressed in the form of rate of radioactive iodide outflow (R) according to the following formula: […]
This iodide flow is represented in the form of a curve. In order to quantify the outflow of iodide due to the administration of the molecule tested, the following relative flow is calculated which makes it possible to dispense with the basic flow: relative rate (min^−1)=Rpeak−Rbasal. […] The results are presented in the form of a mean+/−SEM. The student's statistical test is used to compare the effect of the drugs to the controls (the values corresponding to P<0.01 are considered as statistically significant).
The study of the targeting of the delF508-CFTR protein was carried out by combining pharmacological and cell imaging approaches, and biochemical and electrophysiological tests on […] human epithelial cells CF15 homozygous for the delF508 deletion.
For each experiment, the addition of a cocktail (10 μM forskolin+30 μM genistein) allows the activation of CFTR when it is attached to the membrane. Thus, an iodide efflux can be observed if the targeting of delF508 has been restored.

In data set [2] the target is T1, delF508-CFTR. The data set is described as follows: immunolocalization of delF508-CFTR in CF15 cells (confocal imaging). Type of data set: cell-based. The following applies: 100 μM aloisine A. Here is the method:
Immunolabeling makes it possible to reveal the cellular location of the CFTR protein using a primary anti-CFTR antibody (Ab), and then a secondary antibody anti-primary antibody labeled with the fluorophore Cy3.
The cells are inoculated beforehand on cover glass in appropriate culture medium. 3 washes with TBS (NaCl: 157 mM, Tris base: […], pH 7.4) of 5 min each are performed. The cells are then fixed by addition of TBS-paraformaldehyde (3%) for 20 min. After 3 washes with TBS (5 min), the cells are incubated with TBS-triton 0.1% (10 min) which allows the formation of holes in the cell membrane and then 3 washes with TBS are again carried out before bringing the cells into contact with TBS-BSA 0.5%-saponin 0.05% for 1 h. The cells are then incubated with the anti-C-terminal CFTR primary antibody (2 μg/ml) for 1 h. 3 washes with TBS-BSA-saponin of 5 min each are carried out before the incubation with the secondary antibody GAM-cy3 (1/400) for 1 h. Following 2 washes with TBS of 5 min, the nuclei are labeled by incubating with Topro3 (1/1000) for 5 min. Next, the cover glass may be mounted on the slide after 3 final washes with TBS of 5 min. […] In order to distinguish between the Cy3 and Topro3 labeling, the fluorescence color of Topro3 was changed to blue (color of the nuclei).

The target in another data set is T2, wild-type CFTR (CFTR-WT) (Homo sapiens, UniProt P13569).
T2 construct: expressed in transfected cells; host or cells: CHO (Chinese Hamster Ovary) cells
T2 sequence (P13569 whole entry): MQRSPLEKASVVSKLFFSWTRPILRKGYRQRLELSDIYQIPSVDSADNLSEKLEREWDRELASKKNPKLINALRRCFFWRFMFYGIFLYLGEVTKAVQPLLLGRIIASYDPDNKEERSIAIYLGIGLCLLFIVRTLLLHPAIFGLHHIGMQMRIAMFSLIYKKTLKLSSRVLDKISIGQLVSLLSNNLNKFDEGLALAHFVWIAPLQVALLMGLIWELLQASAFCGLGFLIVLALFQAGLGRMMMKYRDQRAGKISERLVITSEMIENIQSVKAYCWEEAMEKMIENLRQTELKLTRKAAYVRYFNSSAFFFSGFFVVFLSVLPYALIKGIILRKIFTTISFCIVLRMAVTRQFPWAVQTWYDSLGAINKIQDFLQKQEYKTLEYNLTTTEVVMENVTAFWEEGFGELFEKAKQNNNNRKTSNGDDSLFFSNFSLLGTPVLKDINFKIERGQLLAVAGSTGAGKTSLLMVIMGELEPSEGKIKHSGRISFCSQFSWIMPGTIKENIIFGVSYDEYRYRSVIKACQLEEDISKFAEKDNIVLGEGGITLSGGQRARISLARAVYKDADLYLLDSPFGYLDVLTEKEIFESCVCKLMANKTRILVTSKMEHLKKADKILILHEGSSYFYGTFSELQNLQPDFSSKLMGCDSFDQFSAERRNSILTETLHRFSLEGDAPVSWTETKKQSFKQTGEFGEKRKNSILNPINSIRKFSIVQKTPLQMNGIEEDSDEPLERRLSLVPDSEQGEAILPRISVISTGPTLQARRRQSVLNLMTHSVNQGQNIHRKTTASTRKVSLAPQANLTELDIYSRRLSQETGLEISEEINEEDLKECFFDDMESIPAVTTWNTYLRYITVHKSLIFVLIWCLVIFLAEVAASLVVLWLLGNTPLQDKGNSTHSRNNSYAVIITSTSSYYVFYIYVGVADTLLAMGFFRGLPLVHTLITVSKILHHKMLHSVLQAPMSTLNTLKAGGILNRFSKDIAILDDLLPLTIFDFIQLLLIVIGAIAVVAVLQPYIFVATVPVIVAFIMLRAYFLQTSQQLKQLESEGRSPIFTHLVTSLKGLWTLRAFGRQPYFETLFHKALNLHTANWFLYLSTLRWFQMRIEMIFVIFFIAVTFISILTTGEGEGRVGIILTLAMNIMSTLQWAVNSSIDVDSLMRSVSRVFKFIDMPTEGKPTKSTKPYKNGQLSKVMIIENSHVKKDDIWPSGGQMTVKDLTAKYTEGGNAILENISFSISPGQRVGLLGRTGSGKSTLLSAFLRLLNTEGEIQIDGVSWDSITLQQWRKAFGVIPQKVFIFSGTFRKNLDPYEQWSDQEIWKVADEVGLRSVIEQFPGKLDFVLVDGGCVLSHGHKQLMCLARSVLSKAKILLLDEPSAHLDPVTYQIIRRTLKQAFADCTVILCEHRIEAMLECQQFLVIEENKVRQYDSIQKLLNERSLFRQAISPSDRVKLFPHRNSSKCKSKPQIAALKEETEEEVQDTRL
The data set is described as follows: iodide efflux, activation of the CFTR chloride channel in CHO cells. Type of data set: cell-based. The method, then: CHO-WT cells: The CHO (Chinese Hamster Ovary) cells are fibroblasts which have been transfected with the wild-type CFTR (CFTR-WT) gene. These cells will therefore overexpress the CFTR protein.
the measurements of chloride ion transport in the cells was carried out with the aid of the radioactive iodide efflux technique (Becq et al., 1999; Dormer et al., 2001). The tracer (^125I) is incorporated into the intracellular medium. Next, the quantity of radiotracer which leaves the cell is counted after the addition of various pharmacological agents. […]
(§2) The cells are cultured on 24-well plates in a suitable medium. 2 rinses with efflux medium (NaCl: 136.6 mM, KCl: 5.4 mM, KH2PO4: 0.3 mM, NaH2PO4: 0.3 mM, NaHCO3: 4.2 mM, CaCl2: 1.3 mM, MgCl2: 0.5 mm, MgSO4: 0.4 mM, HEPES: 10 mM, D-glucose: 5.6 mM) are carried out in order to remove the dead cells which release the radioactivity anarchically. […] A robot (MultiPROBE, Packard) carries out the following steps: the loading medium is rinsed with efflux medium in order to remove the extracellular radioactivity. […] At the end of the experiment, the cells are lyzed by adding 500 μl of NaOH (0.1 N)/0.1% SDS (30 min), thus, the radioactivity which remained inside the cell may be determined. The radioactivity present in the hemolysis tubes is counted as counts per minute (cpm) using a gamma counter (Cobra II, Packard). […]

For the next data set, the target named is T3, G551D-CFTR (Homo sapiens, UniProt P13569, G551D).
T3 construct: expressed in transfected cells; host or cells: CHO cells
T3 sequence (P13569 whole entry G551D): as the sequence (P13569 whole entry) above, with G551D counted along it
The data set is described as follows: iodide efflux, activation of G551D-CFTR in CHO cells. Type of data set: cell-based. The settings on record: CHO cell. Here is the method:
(§3) the measurements of chloride ion transport in the cells was carried out with the aid of the radioactive iodide efflux technique (Becq et al., 1999; Dormer et al., 2001). The tracer (^125I) is incorporated into the intracellular medium. Next, the quantity of radiotracer which leaves the cell is counted after the addition of various pharmacological agents. Iodide is used as a tracer for the transport of chloride ions. ^125I further has the advantage of having a short life compared with that of other markers such as ^35Cl (respective ½ life: […] and 300000 years).
as §2

The conditions of data set [3]: in vivo.
The next data set concerns CHO-WT cells. Put plainly: MTT cytotoxicity test. Type of data set: cell-based, Chinese Hamster. The following applies: various concentrations. Here is the method: The test of toxicity to MTT is a […] test which is based on capacity of mitochondrial dehydrogenases to metabolize MTT (yellow tetrazolium salt) to formazan (purple). The absorbance, which is proportional to the concentration of dye converted, can then be measured by spectrophotometry. […] 3 controls are prepared: 100% living cells: cells without agent; 0% living cells: cells left in the open air; blank: medium without cells. […] Next, they are incubated for 4 h with 100 μl of RPMI solution supplemented with MTT (0.5 mg/ml). The medium is then removed, the addition of 100 μl of DMSO makes it possible to solubilize the dye converted (formazan). The absorbance is measured by spectrophotometry at 570 nm (purple); 630 nm (background). In order to eliminate the background, the following calculation is carried out: DOreal=DO570nm−DO630nm. Next, the results are normalized with respect to the controls (100% and 0% of living cells) and are presented in the form of mean+/−SEM.
A general note: Formazan colour is commonly taken as a measure of viable cells.

Data set [4] deals with T1, delF508-CFTR. Put plainly: iodide efflux, activation of delF508 in CF15 cells after incubation at 27° C. The format is cell-based. The method, then:
as §1, §3
as §2, with “determined.” for “determined. The radioactivity present in the hemolysis tubes is counted as counts per minute (cpm) using a gamma counter (Cobra II, Packard).”

T1 sequence (P13569 with tags, fused parts or gaps DEL508-508): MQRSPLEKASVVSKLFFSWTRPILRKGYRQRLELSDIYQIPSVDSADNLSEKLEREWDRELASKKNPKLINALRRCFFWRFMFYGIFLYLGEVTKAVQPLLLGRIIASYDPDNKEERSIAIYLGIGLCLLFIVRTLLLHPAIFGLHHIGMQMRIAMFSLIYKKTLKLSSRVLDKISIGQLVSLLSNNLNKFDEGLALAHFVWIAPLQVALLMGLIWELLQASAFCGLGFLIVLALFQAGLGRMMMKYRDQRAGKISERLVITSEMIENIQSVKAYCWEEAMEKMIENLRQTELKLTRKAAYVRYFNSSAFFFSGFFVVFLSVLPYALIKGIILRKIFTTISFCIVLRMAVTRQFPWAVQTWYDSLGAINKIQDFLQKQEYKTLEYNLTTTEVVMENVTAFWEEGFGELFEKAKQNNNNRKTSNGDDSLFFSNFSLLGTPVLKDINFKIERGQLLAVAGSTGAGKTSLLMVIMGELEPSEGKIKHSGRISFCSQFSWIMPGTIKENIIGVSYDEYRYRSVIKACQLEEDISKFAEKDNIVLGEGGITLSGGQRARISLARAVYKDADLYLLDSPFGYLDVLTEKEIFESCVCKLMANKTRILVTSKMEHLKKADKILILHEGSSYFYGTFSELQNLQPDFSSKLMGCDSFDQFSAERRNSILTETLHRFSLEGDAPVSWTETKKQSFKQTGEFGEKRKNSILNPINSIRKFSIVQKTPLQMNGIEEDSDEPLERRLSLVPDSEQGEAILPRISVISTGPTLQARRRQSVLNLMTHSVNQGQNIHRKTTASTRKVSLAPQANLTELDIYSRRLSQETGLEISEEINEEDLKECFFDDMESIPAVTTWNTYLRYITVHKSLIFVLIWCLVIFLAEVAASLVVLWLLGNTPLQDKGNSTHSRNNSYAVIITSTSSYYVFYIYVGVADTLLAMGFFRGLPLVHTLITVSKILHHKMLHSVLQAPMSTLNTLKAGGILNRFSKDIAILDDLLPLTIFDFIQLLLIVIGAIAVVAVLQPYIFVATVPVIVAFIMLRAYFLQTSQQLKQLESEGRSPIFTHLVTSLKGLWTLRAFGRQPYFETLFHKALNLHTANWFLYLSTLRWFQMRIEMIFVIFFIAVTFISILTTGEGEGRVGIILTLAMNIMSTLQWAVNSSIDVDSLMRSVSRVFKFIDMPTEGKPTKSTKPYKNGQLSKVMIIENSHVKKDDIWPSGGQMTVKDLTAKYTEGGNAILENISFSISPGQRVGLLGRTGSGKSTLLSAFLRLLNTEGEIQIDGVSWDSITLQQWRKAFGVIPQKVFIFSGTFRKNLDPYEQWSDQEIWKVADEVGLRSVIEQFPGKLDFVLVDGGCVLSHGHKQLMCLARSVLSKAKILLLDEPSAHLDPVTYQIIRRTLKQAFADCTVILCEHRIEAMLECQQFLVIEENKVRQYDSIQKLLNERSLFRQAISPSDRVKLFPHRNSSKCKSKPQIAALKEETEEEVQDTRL

As to `C[C@H]1CCC/C=C/[C@@H]2C[C@H](O)C[C@H]2[C@H](O)/C=C/C(=O)O1` [Brefeldin A], the “competition with aloisine A: effect on the aloisine A-induced retargeting of delF508-CFTR” value on delF508-CFTR [1] (iodide efflux, CF15 cells) is recorded as “inhibition”.
For `O=S(=O)(O)c1cc(N=C=S)ccc1C=Cc1ccc(N=C=S)cc1S(=O)(=O)O` [DIDS], the “effect of known CFTR inhibitors on delF508 transport after treatment with aloisine A” value on delF508-CFTR [1] is “insensitive”.
The same measure, in the same setting: to `O=C(O)c1ccccc1Nc1ccccc1` [DPC] belongs “blocked”.
Turning to `CCCCc1c(-c2ccc(O)cc2)[nH]c2nccnc12` [aloisine A], the “localization of the delF508 protein” value on delF508-CFTR [2] was “redirect the delF508 protein to the membrane”. For the same compound, the “delF508-CFTR activity after treatment” value at delF508-CFTR [1] (CF15 cells, 100 μM, 2 h treatment, 37° C.) was “restored”. Moreover, the EC50 was 50000 nM and 49000 nM on delF508-CFTR [1] (CF15 cells, 2 h treatment, then 10 μM forskolin+30 μM genistein, read-out: EC50 of retargeting of delF508-CFTR (restored iodide efflux)); 152 nM at wild-type CFTR (CFTR-WT); 1.5 nM at G551D-CFTR; 110 nM on delF508-CFTR [4]. Also, the toxicity on animals result in data set [3] is on record as “very low toxicity”. Further, the “cell viability (MTT)” value in the data set with CHO-WT cells (2 h incubation) and in the data set with CHO-WT cells (24 h incubation) was “viable for all the concentrations” throughout.
With `COc1ccc(Cl)cc1C(=O)NCCc1ccc(S(=O)(=O)NC(=O)NC2CCCCC2)cc1` [glibenclamide], the “effect of known CFTR inhibitors on delF508 transport after treatment with aloisine A” value on delF508-CFTR [1] is reported as “blocked”.
